From patent US6444832B1, “Amino alcohol derivatives, method of producing said derivatives and medicaments containing them” (priority 1995, dated 2002)

These compounds were tested on primary osteoblastic cells of foetal rat calvariae (assay: DNA synthesis assay in primary cultures of osteoblasts from fetal rat calvariae (3H-thymidine incorporation)). Conditions: 1 μg/ml; 24 hours incubation, methyl-3H-thymidine during the last 3 hours; medium containing BSA control = 100%.
Assay type: cell-based
Experimental: Compounds of formula (I) were examined in a DNA synthesis assay in primary cultures of osteoblasts from fetal rat calvariae. The experiments were carried out in accordance with Pfeilschifter et al., Endocrinology 126, 703 (1990).
Primary osteoblasts were isolated from foetal rat calvariae by sequential digestion with collagenase. In this process 5 cell fractions were obtained. A pool from the cell fractions 3-5 were cultured in vitro. The cells were cultured in an incubator at a relative air humidity of 95%, a CO2 content of 5% and a temperature of 37° C. The test substances were examined in the cultures of the first, second or third cell passage. For the examinations the cells were sown at a cell count of 7×10^3 cells (in 100 μl culture medium)/well in microtitre plates at least 76 hours before applying the test substances. MEM Dulbecco (plus 4.5 g/l glucose plus 3.7 g/l NaHCO3 without glutamine) was used as the culture medium to which 5% foetal calf serum (FCS) and […] penicillin/streptomycin had been added. Immediately before addition of the test substances to the cell culture the medium was replaced by 150 μl medium which contained 1 mg/ml bovine serum albumin (BSA) instead of FCS. Test substances were added at the desired concentrations to the medium containing BSA. TGFβ1 (transforming growth factor β1) at concentrations of 0.1-0.2 ng/ml were also examined as a positive control. Three determinations were carried out per (positive) control or substance concentration. The cell cultures were incubated for 24 hours with test substances, a thymidine probe (1 μCi methyl-^3H-thymidine in 20 μl PBS solution) being additionally present during the last 3 hours. At the end of the incubation period the cell cultures were washed three times with 0.9% saline solution and subsequently admixed with 100 μl liquid scintillator each time (OptiPhase Supermix TM®). Afterwards the radioactivity incorporated into the DNA was measured in cpm in a liquid scintillation counter (1450 MicroBeta®). Cell cultures which had only received medium containing BSA served as controls (100%).

First: CC/C=C\C/C=C\C/C=C\CCCCCCCC(=O)N[C@@H](CO)CCCC (stereo in doubt) [Example 9]
Second: CCCCC/C=C\C/C=C\CCCCCCCC(=O)N[C@@H](CO)CCCC (stereo in doubt) [Example 10]
The “Rate of DNA synthesis of primary osteoblastic cells of foetal rat calvariae in percent compared to the control (=100%)” value of the first is lower: 367% for the first, 475% for the second.

Going from `CCCCC/C=C\C/C=C\CCCCCCCC(=O)N[C@H](CC)CO` (stereo in doubt) [Example 27] to `CCCCC/C=C\C/C=C\CCCCCCCC(=O)NC(CO)CCCC` (stereo not drawn) [Example 24], the “Rate of DNA synthesis of primary osteoblastic cells of foetal rat calvariae in percent compared to the control (=100%)” value falls from 252% to 223%.

First: CCCCCC/C=C\CCCCCCCC(=O)NC(CO)CCCC (stereo not drawn) [Example 11]
Second: CCCCCCCC/C=C/CCCCCCCC(=O)NC(CO)CCCC (stereo not drawn) [Example 21]
The “Rate of DNA synthesis of primary osteoblastic cells of foetal rat calvariae in percent compared to the control (=100%)” value of the first is higher: 191% for the first, 188% for the second.

Going from `CCCC/C=C\CCCCCCCC(=O)NC(CO)CCCC` (stereo not drawn) [Example 19] to `CCCCCCCC/C=C\CCCCCCCC(=O)NC(CO)CCCC` (stereo not drawn) [Example 26], the “Rate of DNA synthesis of primary osteoblastic cells of foetal rat calvariae in percent compared to the control (=100%)” value falls from 298% to 296%.

For `CCCCCCCCC#CCCCCCCCC(=O)NC(CO)CCCC` (stereo not drawn) [Example 20], the “Rate of DNA synthesis of primary osteoblastic cells of foetal rat calvariae in percent compared to the control (=100%)” value was 250%.
